# Laboratory results from patent publication US8952024B2, “Herbicidal pyrimidone derivatives” (E I du Pont de Nemours and Company, priority 2009, dated 2015).
# Tests used:
# Assay in all cases: Test B pre-/postemergence plant response
# Format in all cases: in vivo
# [1] = test system: wheat (Triticum aestivum)
# Method in brief: (§1)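 Steps: sow seed in loam–sand soil and spray preemergence, or grow plants in peat-based medium to 1–4 leaves (2–18 cm) and spray postemergence; formulation is non-phytotoxic solvent plus surfactant; hold in greenhouse 13–15 days; score visually vs controls, 0 = no effect, 100 = complete control.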
# [2] = test system: green foxtail (Setaria viridis)
# Method in brief: as §1
# [3] = test system: johnsongrass (Sorghum halepense)
# Method in brief: as §1
# [4] = test system: large crabgrass (Digitaria sanguinalis)
# Method in brief: as §1
# soybean (Glycine max) = test system: soybean (Glycine max)
# Method in brief: as §1
# [5] = test system: lambsquarters (Chenopodium album)
# Method in brief: as §1
# [6] = test system: velvetleaf (Abutilon theophrasti)
# Method in brief: as §1
# [7] = test system: yellow nutsedge (Cyperus esculentus)
# Method in brief: as §1
# [8] = test system: bermudagrass (Cynodon dactylon)
# Method in brief: as §1
# [9] = test system: ragweed (common ragweed, Ambrosia elatior)
# Method in brief: as §1
# [10] = test system: goosegrass (Eleusine indica)
# Method in brief: as §1
# [11] = test system: woolly cupgrass (Eriochloa villosa)
# Method in brief: as §1
# kochia (Kochia scoparia) = test system: kochia (Kochia scoparia)
# Method in brief: as §1
# [12] = 250 g ai/ha, Preemergence, 0 to 100 scale
# [13] = Postemergence, 31 g ai/ha, scale 0 to 100 (0 no effect, 100 complete control)
# [14] = Postemergence, 62 g ai/ha, scale 0 (no effect) to 100 (complete control), 13 to 15 days
# [15] = Postemergence, 125 g ai/ha, visual rating after 13 to 15 days, scale 0 (no effect) to 100 (complete control)
# [16] = Postemergence, 250 g ai/ha, scale 0 to 100
# [17] = Preemergence, 31 g ai/ha, scale 0 to 100 (0 no effect, 100 complete control)
# [18] = Preemergence, 62 g ai/ha, scale 0 to 100 (0 no effect, 100 complete control)
# [19] = Preemergence, 125 g ai/ha, 0 to 100 scale
substance,measurement,setting,value
3-cyclohexyl-5-[(2-hydroxy-6-oxo-1-cyclohexen-1-yl)carbonyl]-2-phenyl-4(3H)-pyrimidinone [Compound 128],"Plant response rating, Wheat",[1]; [12],5
same,"Plant response rating, Wheat",[1]; [13],30
same,"Plant response rating, Wheat",[1]; [14],35
same,"Plant response rating, Wheat",[1]; [15],40
same,Wheat plant response rating,[1]; [16],45
same,"Plant response rating, Wheat",[1]; [17],0
same,"Plant response rating, Wheat",[1]; [18],0
same,Wheat plant response rating,[1]; [19],0
same,"Plant response rating, Foxtail, Green",[2]; [12],65
same,"Plant response rating, Foxtail, Green",[2]; [13],60
same,"Plant response rating, Foxtail, Green",[2]; [14],60
same,"Plant response rating, Foxtail, Green",[2]; [15],85
same,"Foxtail, Green plant response rating",[2]; [16],98
same,"Plant response rating, Foxtail, Green",[2]; [17],0
same,"Plant response rating, Foxtail, Green",[2]; [18],25
same,"Foxtail, Green plant response rating",[2]; [19],65
same,"Plant response rating, Johnsongrass",[3]; [12],98
same,"Plant response rating, Johnsongrass",[3]; [13],65
same,"Plant response rating, Johnsongrass",[3]; [14],70
same,"Plant response rating, Johnsongrass",[3]; [15],90
same,Johnsongrass plant response rating,[3]; [16],98
same,"Plant response rating, Johnsongrass",[3]; [17],0
same,"Plant response rating, Johnsongrass",[3]; [18],55
same,Johnsongrass plant response rating,[3]; [19],85
same,"Plant response rating, Crabgrass, Large",[4]; [12],100
same,"Plant response rating, Crabgrass, Large",[4]; [13],80
same,"Plant response rating, Crabgrass, Large",[4]; [14],85
same,"Plant response rating, Crabgrass, Large",[4]; [15],100
same,"Crabgrass, Large plant response rating",[4]; [16],100
same,"Plant response rating, Crabgrass, Large",[4]; [17],60
same,"Plant response rating, Crabgrass, Large",[4]; [18],100
same,"Crabgrass, Large plant response rating",[4]; [19],100
same,"Plant response rating, Soybean",soybean (Glycine max); [12],95
same,"Plant response rating, Soybean",soybean (Glycine max); [13],100
same,"Plant response rating, Soybean",soybean (Glycine max); [14],100
same,"Plant response rating, Soybean",soybean (Glycine max); [15],100
same,Soybean plant response rating,soybean (Glycine max); [16],100
same,"Plant response rating, Soybean",soybean (Glycine max); [17],25
same,"Plant response rating, Soybean",soybean (Glycine max); [18],45
same,Soybean plant response rating,soybean (Glycine max); [19],65
same,"Plant response rating, Lambsquarters",[5]; [12],100
same,"Plant response rating, Lambsquarters",[5]; [13],50
same,"Plant response rating, Lambsquarters",[5]; [14],70
same,"Plant response rating, Lambsquarters",[5]; [15],95
same,Lambsquarters plant response rating,[5]; [16],98
same,"Plant response rating, Lambsquarters",[5]; [17],100
same,"Plant response rating, Lambsquarters",[5]; [18],100
same,Lambsquarters plant response rating,[5]; [19],100
same,"Plant response rating, Velvetleaf",[6]; [12],100
same,"Plant response rating, Velvetleaf",[6]; [13],80
same,"Plant response rating, Velvetleaf",[6]; [14],95
same,"Plant response rating, Velvetleaf",[6]; [15],100
same,Velvetleaf plant response rating,[6]; [16],100
same,"Plant response rating, Velvetleaf",[6]; [17],100
same,"Plant response rating, Velvetleaf",[6]; [18],100
same,Velvetleaf plant response rating,[6]; [19],100
same,"Plant response rating, Nutsedge, Yellow",[7]; [12],90
same,"Plant response rating, Nutsedge, Yellow",[7]; [13],25
same,"Plant response rating, Nutsedge, Yellow",[7]; [14],35
same,"Plant response rating, Nutsedge, Yellow",[7]; [15],50
same,"Nutsedge, Yellow plant response rating",[7]; [16],60
same,"Plant response rating, Nutsedge, Yellow",[7]; [17],0
same,"Plant response rating, Nutsedge, Yellow",[7]; [18],55
same,"Nutsedge, Yellow plant response rating",[7]; [19],85
same,"Plant response rating, Bermudagrass",[8]; [12],100
same,"Plant response rating, Bermudagrass",[8]; [13],80
same,"Plant response rating, Bermudagrass",[8]; [14],100
same,"Plant response rating, Bermudagrass","[8]; Postemergence, 125 g ai/ha, scale 0 to 100 (0 no effect, 100 complete control), 13 to 15 days",100
same,Bermudagrass plant response rating,[8]; [16],100
same,"Plant response rating, Bermudagrass",[8]; [17],98
same,"Plant response rating, Bermudagrass",[8]; [18],100
same,Bermudagrass plant response rating,[8]; [19],100
same,"Plant response rating, Ragweed",[9]; [12],100
same,"Plant response rating, Ragweed",[9]; [13],100
same,"Plant response rating, Ragweed",[9]; [14],100
same,"Plant response rating, Ragweed",[9]; [15],100
same,Ragweed plant response rating,[9]; [16],100
same,"Plant response rating, Ragweed",[9]; [17],65
same,"Plant response rating, Ragweed",[9]; [18],100
same,Ragweed plant response rating,[9]; [19],100
same,"Plant response rating, Goosegrass",[10]; [12],100
same,"Plant response rating, Goosegrass",[10]; [13],65
same,"Plant response rating, Goosegrass",[10]; [14],85
same,"Plant response rating, Goosegrass",[10]; [15],95
same,Goosegrass plant response rating,[10]; [16],98
same,"Plant response rating, Goosegrass",[10]; [17],70
same,Goosegrass plant response rating,[10]; [19],100
same,"Plant response rating, Cupgrass, Woolly",[11]; [12],75
same,"Plant response rating, Cupgrass, Woolly",[11]; [13],55
same,"Plant response rating, Cupgrass, Woolly",[11]; [14],75
same,"Plant response rating, Cupgrass, Woolly",[11]; [15],90
same,"Cupgrass, Woolly plant response rating",[11]; [16],95
same,"Plant response rating, Cupgrass, Woolly",[11]; [17],0
same,"Plant response rating, Cupgrass, Woolly",[11]; [18],0
same,"Cupgrass, Woolly plant response rating",[11]; [19],15
same,"Plant response rating, Kochia",kochia (Kochia scoparia); [12],100
same,"Plant response rating, Kochia",kochia (Kochia scoparia); [13],25
same,"Plant response rating, Kochia",kochia (Kochia scoparia); [14],25
same,"Plant response rating, Kochia",kochia (Kochia scoparia); [15],75
same,Kochia plant response rating,kochia (Kochia scoparia); [16],98
same,"Plant response rating, Kochia",kochia (Kochia scoparia); [17],15
same,"Plant response rating, Kochia",kochia (Kochia scoparia); [18],100
same,Kochia plant response rating,kochia (Kochia scoparia); [19],100
